From US7119073B2, “Peptides and their use as inhibitors of hepatitis C virus ns3 protease” (Istituto Di Ricerche Di Biologia Molecolare P. Angeletti SpA, priority 2001, dated 2006)
Where a SMILES comes first, the peptide text is derived from it. The star is where a group is joined. NHPhenethyl = c1ccc(CCN*)cc1; Boc = CC(C)(C)OC(=O)*

Target: T1, NS3 protease domain complexed to a modified form of the NS4A peptide (Pep4AK) (Hepatitis C virus genotype 1b, UniProt P26663)
T1 construct: NS3 protease domain (residues 1027–1206 of the HCV polyprotein)
T1 sequence (P26663 1027-1206, other chains not shown): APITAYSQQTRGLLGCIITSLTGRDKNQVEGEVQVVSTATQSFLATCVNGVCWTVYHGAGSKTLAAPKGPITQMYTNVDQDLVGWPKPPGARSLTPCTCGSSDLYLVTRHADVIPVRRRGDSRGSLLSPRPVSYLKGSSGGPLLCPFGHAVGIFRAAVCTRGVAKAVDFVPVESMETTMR
Test: HCV NS3 protease domain/NS4A cofactor peptide assay (Assay B)
Assay type: biochemical
Conditions: NS3 protease domain/NS4A cofactor peptide assay; read-out: Assay B (IC50 class)

Structure (SMILES) | IC50 [µM]
CC(C)C[C@H](NC(=O)C1(Cc2ccc(C(=O)O)s2)CCc2ccccc2N1)C(=O)N[C@@H](CC(F)F)C(=O)NCCc1ccc(C(=O)O)cc1Cl (single isomer, unassigned) [Compound 711a] | < 100
CC(C)CC(NC(=O)c1ccccc1-c1ccccc1C(=O)O)C(=O)NC(CC(F)F)C(=O)NCCc1c(F)cc(C(=O)O)cc1F (centres unmarked) [Compound 718] | < 100
CC(C)C[C@H](NC(=O)C1(Cc2ccsc2C(=O)O)CCc2ccccc2N1)C(=O)N[C@@H](CC(F)F)C(=O)NCCc1cccc(/C=C/C(=O)O)c1 (single isomer, unassigned) [Compound 714] | < 100
CC(C)CC(NC(=O)c1ccccc1-c1ccccc1C(=O)O)C(=O)NC(CS)C(=O)NCCc1ccc(Cl)cc1Cl (centres unmarked) [Compound 717] | < 100
CC(C)C[C@H](NC(=O)C1(Cc2cccc(C(=O)O)c2)CCc2ccccc2N1)C(=O)N[C@@H](CC(F)F)C(=O)NCCc1ccc(C(=O)O)cc1Cl (single isomer, unassigned) [Compound 712a] | < 100

Same assay, conditions: Table 1; NS3 protease domain/Pep4AK, 4AB peptide substrate; read-out: Assay B

IC50 [µM] | Structure (SMILES)
< 100 | CC(C)C[C@H](NC(=O)[C@@H](NC(=O)OCc1ccc(C(=O)O)cc1)C(C)C)C(=O)N[C@@H](CS)C(=O)NCCc1ccccc1 [Compound 102]
< 10 | CCCCc1ccnc(C(=O)NS(=O)(=O)c2ccc(CCNC(=O)[C@H](CS)NC(=O)[C@H](CC(C)C)NC(=O)[C@H](CCC(=O)O)NC(=O)OCC(C)C)cc2)c1 [Compound 163]
< 100 | CC(C)COC(=O)NC(CCC(=O)O)C(=O)NC(CC(C)C)C(=O)NC(CS)C(=O)NCCc1ccccc1Oc1ccccc1 (centres unmarked) [Compound 123]
< 10 | CC(C)COC(=O)NC(CCC(=O)O)C(=O)NC(CC(C)C)C(=O)NC(CS)C(=O)NCCc1ccc(S(=O)(=O)NC(=O)c2ccccc2)cc1 (centres unmarked) [Compound 162]
< 100 | Cc1ccccc1CCNC(=O)C(CS)NC(=O)C(CC(C)C)NC(=O)C(CCC(=O)O)NC(=O)OCC(C)C (centres unmarked) [Compound 118]
< 100 | CC(C)CC(NC(=O)C(CCC(=O)O)NC(=O)OC(C)(C)C)C(=O)NC(CS)C(=O)NCCc1ccccc1 (stereo not drawn) [Compound 103] (Boc-Glu-Leu-Cys-NHPhenethyl; configuration not given here)
< 100 | COc1ccc(CCNC(=O)C(CS)NC(=O)C(CC(C)C)NC(=O)C(CCC(=O)O)NC(=O)OCC(C)C)cc1Br (centres unmarked) [Compound 176]
< 100 | CC(C)COC(=O)N[C@@H](CCC(=O)O)C(=O)N[C@@H](CC(C)C)C(=O)N[C@@H](CS)C(=O)NC[C@H](C)c1ccccc1 [Compound 108]
< 100 | COC(=O)Cc1ccc(CCNC(=O)C(CS)NC(=O)C(CC(C)C)NC(=O)C(CCC(=O)O)NC(=O)OCC(C)C)cc1 (centres unmarked) [Compound 153]
< 100 | CC(C)COC(=O)NC(CCC(=O)O)C(=O)NC(CC(C)C)C(=O)NC(CS)C(=O)NCCc1ccc(O)cc1 (centres unmarked) [Compound 146]
< 100 | CC(C)COC(=O)N[C@@H](CCC(=O)O)C(=O)N[C@@H](CC(C)C)C(=O)N[C@@H](CS)C(=O)NCC1(c2ccccc2)CC1 [Compound 109]
< 100 | CC(C)COC(=O)NC(CCC(=O)O)C(=O)NC(CC(C)C)C(=O)NC(CS)C(=O)NCC1(c2ccccc2)CCC1 (centres unmarked) [Compound 110]
< 100 | COc1ccccc1CCNC(=O)C(CS)NC(=O)C(CC(C)C)NC(=O)C(CCC(=O)O)NC(=O)OCC(C)C (centres unmarked) [Compound 119]
< 100 | CC(C)COC(=O)NC(CCC(=O)O)C(=O)NC(CC(C)C)C(=O)NC(CS)C(=O)NCCc1ccccc1C(F)(F)F (centres unmarked) [Compound 121]
< 100 | CC(C)COC(=O)NC(CCC(=O)O)C(=O)NC(CC(C)C)C(=O)NC(CS)C(=O)NCCc1cccc(Oc2ccccc2)c1 (centres unmarked) [Compound 137]
< 100 | CC(C)COC(=O)NC(CCC(=O)O)C(=O)NC(CC(C)C)C(=O)NC(CS)C(=O)NCCc1c[nH]c2ccccc12 (centres unmarked) [Compound 189]
< 100 | COc1ccc(OC)c(CCNC(=O)C(CS)NC(=O)C(CC(C)C)NC(=O)C(CCC(=O)O)NC(=O)OCC(C)C)c1 (centres unmarked) [Compound 174]
< 100 | COc1ccc(CCNC(=O)C(CS)NC(=O)C(CC(C)C)NC(=O)C(CCC(=O)O)NC(=O)OCc2ccccc2)cc1 (centres unmarked) [Compound 143]
< 100 | CC(C)COC(=O)NC(CCC(=O)O)C(=O)NC(CC(C)C)C(=O)NC(CS)C(=O)NCCc1ccc(C(C)(C)C)cc1 (centres unmarked) [Compound 148]
< 100 | COc1cc(CCNC(=O)C(CS)NC(=O)C(CC(C)C)NC(=O)C(CCC(=O)O)NC(=O)OCC(C)C)ccc1O (centres unmarked) [Compound 175]
< 10 | CC(C)COC(=O)N[C@@H](CCC(=O)O)C(=O)N[C@@H](CC(C)C)C(=O)N[C@@H](CS)C(=O)NCCc1ccsc1 [Compound 190]
< 10 | CC(C)COC(=O)NC(CCC(=O)O)C(=O)NC(CC(C)C)C(=O)NC(CS)C(=O)NCCc1ccc(S(N)(=O)=O)cc1 (centres unmarked) [Compound 159]

Structure (SMILES) | IC50 [µM]
CC(C)COC(=O)N[C@@H](CCC(=O)O)C(=O)N[C@@H](CC(C)C)C(=O)N[C@@H](CS)C(=O)NCCc1ccc(/C=C/C(=O)O)cc1 [Compound 158] | < 10
CC(C)C[C@H](NC(=O)[C@@H](NC(=O)OCC1CCCC1)C(C)C)C(=O)N[C@@H](CS)C(=O)NCCc1ccc(C(=O)O)cc1Cl [Compound 181] | < 10
CC(C)COC(=O)NC(C(=O)NC(CC(C)C)C(=O)NC(CC(F)F)C(=O)NCCc1ccc(C(=O)O)cc1Cl)C(C)C (centres unmarked) [Compound 179] | < 10

Same assay, conditions: Table 2; NS3 protease domain/Pep4AK; read-out: Assay B

IC50 [µM] | Structure (SMILES)
< 10 | CC(C)C[C@H](NC(=O)[C@H](CCC(=O)O)NC(=O)Cc1ccccc1CC(=O)O)C(=O)N[C@@H](CS)C(=O)NCCc1ccc(Cl)cc1Cl [Compound 225]
< 100 | COc1ccc(CCNC(=O)[C@H](CS)NC(=O)[C@H](CC(C)C)NC(=O)[C@H](CCC(=O)O)NS(C)(=O)=O)cc1 [Compound 254]
< 100 | COc1ccc(CCNC(=O)[C@H](CS)NC(=O)[C@H](CC(C)C)NC(=O)[C@H](CCC(=O)O)NS(=O)(=O)c2ccc3ccccc3c2)cc1 [Compound 255]
< 100 | COc1ccc(CCNC(=O)[C@H](CS)NC(=O)[C@H](CC(C)C)NC(=O)[C@H](CCC(=O)O)NC(=O)c2ccc3c(c2)OCO3)cc1 [Compound 204]
< 100 | CC(C)C[C@H](NC(=O)[C@H](CCC(=O)O)NC(=O)CC(C)(C)CC(=O)O)C(=O)N[C@@H](CS)C(=O)NCCc1ccccc1Cl [Compound 240]
< 100 | CC(C)C[C@H](NC(=O)[C@H](CCC(=O)O)NC(=O)C1CCC(C(=O)O)CC1)C(=O)N[C@@H](CS)C(=O)NCCc1ccccc1Cl (mixture of isomers) [Compound 233]
< 100 | CC(C)C[C@H](NC(=O)[C@H](CCC(=O)O)NS(=O)(=O)c1cccs1)C(=O)N[C@@H](CS)C(=O)NCCc1ccccc1Cl [Compound 253]
< 100 | COc1ccc(CCNC(=O)[C@H](CS)NC(=O)[C@H](CC(C)C)NC(=O)[C@H](CCC(=O)O)NC(=O)c2ccco2)cc1 [Compound 214]
< 100 | CC(C)C[C@H](NC(=O)[C@H](CCC(=O)O)NC(=O)NCc1ccccc1)C(=O)N[C@@H](CS)C(=O)NCCc1ccc(Cl)cc1Cl [Compound 248]
< 100 | CC(C)C[C@H](NC(=O)[C@H](CCC(=O)O)NC(=O)C1C[C@H]1c1ccccc1)C(=O)N[C@@H](CS)C(=O)NCCc1ccccc1Cl (some centres unmarked) [Compound 219]
< 100 | CC(C)C[C@H](NC(=O)[C@H](CCC(=O)O)NC(=O)c1cccc(Br)c1)C(=O)N[C@@H](CS)C(=O)NCCc1ccccc1Cl [Compound 206]
< 100 | COc1ccc(CCNC(=O)[C@H](CS)NC(=O)[C@H](CC(C)C)NC(=O)[C@H](CCC(=O)O)NC(=O)C2CCCCC2)cc1 [Compound 231]
< 100 | COc1ccc(CCNC(=O)[C@H](CS)NC(=O)[C@H](CC(C)C)NC(=O)[C@H](CCC(=O)O)NC(=O)c2ccc(C#N)cc2)cc1 [Compound 207]
< 100 | COc1ccc(CCNC(=O)[C@H](CS)NC(=O)[C@H](CC(C)C)NC(=O)[C@H](CCC(=O)O)NC(=O)C2C[C@H]2c2ccccc2)cc1 (some centres unmarked) [Compound 220]
< 100 | CC(C)C[C@H](NC(=O)[C@H](CCC(=O)O)NC(=O)Cc1ccccc1)C(=O)N[C@@H](CS)C(=O)NCCc1ccccc1Cl [Compound 215]
< 100 | CC(C)C[C@H](NC(=O)[C@H](CCC(=O)O)NC(=O)c1cc(O)ccc1N)C(=O)N[C@@H](CS)C(=O)NCCc1ccccc1Cl [Compound 208]
< 100 | CC(C)C[C@H](NC(=O)[C@H](CCC(=O)O)NC(=O)Cc1cccc(CC(=O)O)c1)C(=O)N[C@@H](CS)C(=O)NCCc1ccc(Cl)cc1Cl [Compound 226]
< 100 | COc1ccc(CCNC(=O)[C@H](CS)NC(=O)[C@H](CC(C)C)NC(=O)[C@H](CCC(=O)O)NC(=O)C2CCCCCC2)cc1 [Compound 232]
< 100 | CC(C)C[C@H](NC(=O)[C@H](CCC(=O)O)NC(=O)CCC(=O)O)C(=O)N[C@@H](CS)C(=O)NCCc1ccccc1Cl [Compound 239]

Structure (SMILES) | IC50 [µM]
CC(C)C[C@H](NC(=O)[C@H](CCC(=O)O)NC(=O)c1ccc2c(c1)OCO2)C(=O)N[C@@H](CS)C(=O)NCCc1ccccc1Cl [Compound 203] | < 100

Same assay, conditions: Table 4; NS3 protease domain/Pep4AK; read-out: Assay B

IC50 [µM] | Structure (SMILES)
< 100 | CC(C)COC(=O)N[C@@H](CCC(=O)O)C(=O)N1Cc2ccccc2C[C@H]1C(=O)N[C@@H](CS)C(=O)NCCc1ccccc1Cl [Compound 417]
< 100 | CC[C@H](NC(=O)[C@H](CCC(=O)O)NC(=O)OCC(C)C)C(=O)N[C@@H](CS)C(=O)NCCc1ccccc1Cl [Compound 401]
< 100 | CC(C)COC(=O)N[C@@H](CCC(=O)O)C(=O)N[C@@H](CC(F)F)C(=O)N[C@@H](CS)C(=O)NCCc1ccc(C(=O)O)cc1 [Compound 402]
< 100 | CCC[C@H](NC(=O)[C@H](CCC(=O)O)NC(=O)OCC(C)C)C(=O)N[C@@H](CS)C(=O)NCCc1ccccc1Cl [Compound 405]
< 100 | CC(C)COC(=O)NC(CCC(=O)O)C(=O)N1C(C(=O)NC(CS)C(=O)NCCc2ccccc2Cl)CCC1c1ccccc1 (centres unmarked) [Compound 422]
< 100 | CCCC[C@H](NC(=O)[C@H](CCC(=O)O)NC(=O)OCC(C)C)C(=O)N[C@@H](CS)C(=O)NCCc1ccccc1Cl [Compound 407]
